Experimental data published in the supplement of paper PMC8617591.

Key:
[1] = system: Mycobacterium tuberculosis Erdman (autoluminescent); test: FIC90 (Loewe) at 90% inhibition (log2); higher = more antagonistic
Method: (§1)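 DiaMOND equipotent two-drug combination dose responses against autoluminescent M. tuberculosis Erdman in 8 in vitro models. Read-out is OD600, or luminescence for the intracellular and dormancy models, normalised to untreated wells. Hill-fit Einf, AUC25 and GRinf are potency metrics; FIC50 and FIC90 are Loewe-additivity fractional inhibitory concentrations, given as log2 (negative = synergy). Replicates are averaged.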

[2] = system: Mycobacterium tuberculosis Erdman (autoluminescent); test: Einf, fitted maximum growth inhibition of combination (fraction); higher = stronger maximal inhibition
Method: as §1

[3] = system: Mycobacterium tuberculosis Erdman (autoluminescent); test: GRinf, maximum normalised growth rate inhibition (unitless (-1 to 1)); higher = less effect (negative = killing)
Method: as §1

[4] = system: Mycobacterium tuberculosis Erdman (autoluminescent); test: AUC25, normalised area under dose response up to IC25 (fraction (0-1)); higher = more potent at low dose
Method: as §1

[5] = system: Mycobacterium tuberculosis Erdman (autoluminescent); test: FIC50 (Loewe) at 50% inhibition (log2); higher = more antagonistic
Method: as §1

CC[C@@H](CO)NCCN[C@@H](CC)CO [ethambutol] + NNC(=O)c1ccncc1 [isoniazid]
Conditions	AUC25, [4]	Einf, [2]	FIC50, [5]	FIC90, [1]	GRinf, [3]
in vitro model: acidic pH 5.7, time point: constant (~7 days, model-specific)	0.134	0.693	1.2	–	-0.17
in vitro model: acidic pH 5.7, time point: terminal (~4-5 doublings, model-specific)	0.0706	0.919	0.67	0.229	0.00119
in vitro model: intracellular J774, time point: constant = terminal	–	1	–	-0.439	-0.332

Conditions	AUC25, [4]	Einf, [2]	FIC50, [5]	FIC90, [1]	GRinf, [3]
in vitro model: butyrate, time point: constant (~7 days, model-specific)	0.075	0.933	0.509	–	-0.0966
in vitro model: butyrate, time point: terminal (~4-5 doublings, model-specific)	0.0681	0.973	0.525	0.423	-0.109
in vitro model: cholesterol 0.05 mM, time point: constant (~7 days, model-specific)	0.0891	0.73	0.389	–	-0.157
in vitro model: cholesterol 0.05 mM, time point: terminal (~4-5 doublings, model-specific)	0.0491	0.862	0.82	–	-0.106
in vitro model: cholesterol-high 0.2 mM, time point: constant (~7 days, model-specific)	0.0277	0.905	0.561	–	-0.31
in vitro model: cholesterol-high 0.2 mM, time point: terminal (~4-5 doublings, model-specific)	0.0319	1	0.775	0.501	-0.731
in vitro model: dormancy (butyrate + nitrate, low O2), time point: constant (~7 days, model-specific)	0.104	0.818	-0.0762	–	0.454
in vitro model: dormancy (butyrate + nitrate, low O2), time point: terminal (~4-5 doublings, model-specific)	0.0973	0.964	-0.121	-0.0702	-0.0063
in vitro model: standard 7H9 glycerol, time point: constant = terminal	0.0635	0.92	0.483	0.426	0.0262
in vitro model: valerate, time point: constant (~7 days, model-specific)	0.111	0.897	0.108	–	0.0449
in vitro model: valerate, time point: terminal (~4-5 doublings, model-specific)	0.0612	0.935	0.332	0.345	0.0607

CC[C@@H](CO)NCCN[C@@H](CC)CO [ethambutol] + O=[N+]([O-])c1cn2c(n1)OC[C@@H](OCc1ccc(OC(F)(F)F)cc1)C2 [pretomanid]
Conditions	AUC25, [4]	Einf, [2]	FIC50, [5]	FIC90, [1]	GRinf, [3]
in vitro model: acidic pH 5.7, time point: constant (~7 days, model-specific)	0.113	0.847	0.0798	-1.11	-0.488
in vitro model: acidic pH 5.7, time point: terminal (~4-5 doublings, model-specific)	0.0826	0.978	0.568	0.214	-0.437
in vitro model: intracellular J774, time point: constant = terminal	–	0.977	–	-1.45	-0.403

Conditions	AUC25, [4]	Einf, [2]	FIC50, [5]	FIC90, [1]	GRinf, [3]
in vitro model: butyrate, time point: constant (~7 days, model-specific)	0.0746	0.924	0.254	–	0.00273
in vitro model: butyrate, time point: terminal (~4-5 doublings, model-specific)	0.0585	0.967	0.0549	-0.401	-0.0359
in vitro model: cholesterol 0.05 mM, time point: constant (~7 days, model-specific)	0.12	0.79	0.407	–	-0.319
in vitro model: cholesterol 0.05 mM, time point: terminal (~4-5 doublings, model-specific)	0.104	0.934	0.436	1.01	-0.25
in vitro model: cholesterol-high 0.2 mM, time point: constant (~7 days, model-specific)	0.0476	0.871	1.02	–	-0.159
in vitro model: cholesterol-high 0.2 mM, time point: terminal (~4-5 doublings, model-specific)	0.0356	0.99	0.975	1.06	-0.498
in vitro model: dormancy (butyrate + nitrate, low O2), time point: constant (~7 days, model-specific)	0.1	0.835	0.385	–	0.404
in vitro model: dormancy (butyrate + nitrate, low O2), time point: terminal (~4-5 doublings, model-specific)	0.112	0.968	0.00245	0.272	0.0288
in vitro model: standard 7H9 glycerol, time point: constant = terminal	0.076	0.958	0.211	-0.156	-0.109
in vitro model: valerate, time point: constant (~7 days, model-specific)	0.111	0.836	0.23	–	0.0201
in vitro model: valerate, time point: terminal (~4-5 doublings, model-specific)	0.0733	0.922	0.115	0.51	0.0884
